Consider three compounds from patent US20090298857A1, “Treatment of Neurodegenerative Diseases Through Inhibition of HSP90” (SLOAN-KETTERING INSTITUTE FOR CANCER RESEARCH, priority 2006, published 2009).

SMILES strings stand for the structures. Like-named read-outs stand apart in the source and are kept apart here.

The conditions of data set [1]: known Hsp90 inhibitors; cited from earlier work.
The subject of data set [2] is p35 in primary neurons, COS-7/p35 and COS-7/p35/Tau cells. Nature of the data set: p35 degradation and Tau phosphorylation in primary neurons and transfected COS-7 cells. Conditions: compared with PU24FC1. The format is cell-based, rat. As for the experimental part:
To further examine the roles played by Hsp90 in tauopathy, we made use of both PU24FC1 and 17-(allyllamino)-17-demethoxygeldanamycin (17AAG) and investigated their effects on both cdk5/p35 and TauP301L in primary neuronal and COS-7 cell cultures. Primary neuronal cultures were derived from the cerebral cortices of embryonic day 17 rat embryos and maintained as described previously (105). To determine the effects of PU24FC1 on protein steady-states and on Tau phosphorylation, PU24FC1 was added at day 6 of culture, and cells were incubated at 37° C. as indicated. […] After incubation, cells were harvested and lysed in 2% SDS, and the resulting samples were analyzed by Western blotting.
Phosphorylation of Tau by cdk5 is initiated through activation by complex formation with one of the neuron-specific proteins p35 or p39. […] In concordance, we assessed the influence of Hsp90 inhibition on p35 cellular expression. A dose- and time-dependent degradation of p35 by PU24FC1 was detected in primary neurons by immunoblot and by immunofluorescence techniques, as well as in COS-7/p35 and COS-7/p35/Tau cells. […]
We detected a dose- and time-dependent degradation of p35 by PU24FC1 in primary neurons, as well as in COS-7/p35 and COS-7/p35/Tau cells. […] Reduction of p35 levels by Hsp90 inhibition affected the activity of the cdk5/p35 complex, as measured using a substrate of cdk5, the histone-H1. […]

Data set [3] deals with P-glycoprotein (Homo sapiens, UniProt P08183). Conditions: known Hsp90 inhibitor, cited from earlier work.
Chain of P-glycoprotein (P08183 whole entry): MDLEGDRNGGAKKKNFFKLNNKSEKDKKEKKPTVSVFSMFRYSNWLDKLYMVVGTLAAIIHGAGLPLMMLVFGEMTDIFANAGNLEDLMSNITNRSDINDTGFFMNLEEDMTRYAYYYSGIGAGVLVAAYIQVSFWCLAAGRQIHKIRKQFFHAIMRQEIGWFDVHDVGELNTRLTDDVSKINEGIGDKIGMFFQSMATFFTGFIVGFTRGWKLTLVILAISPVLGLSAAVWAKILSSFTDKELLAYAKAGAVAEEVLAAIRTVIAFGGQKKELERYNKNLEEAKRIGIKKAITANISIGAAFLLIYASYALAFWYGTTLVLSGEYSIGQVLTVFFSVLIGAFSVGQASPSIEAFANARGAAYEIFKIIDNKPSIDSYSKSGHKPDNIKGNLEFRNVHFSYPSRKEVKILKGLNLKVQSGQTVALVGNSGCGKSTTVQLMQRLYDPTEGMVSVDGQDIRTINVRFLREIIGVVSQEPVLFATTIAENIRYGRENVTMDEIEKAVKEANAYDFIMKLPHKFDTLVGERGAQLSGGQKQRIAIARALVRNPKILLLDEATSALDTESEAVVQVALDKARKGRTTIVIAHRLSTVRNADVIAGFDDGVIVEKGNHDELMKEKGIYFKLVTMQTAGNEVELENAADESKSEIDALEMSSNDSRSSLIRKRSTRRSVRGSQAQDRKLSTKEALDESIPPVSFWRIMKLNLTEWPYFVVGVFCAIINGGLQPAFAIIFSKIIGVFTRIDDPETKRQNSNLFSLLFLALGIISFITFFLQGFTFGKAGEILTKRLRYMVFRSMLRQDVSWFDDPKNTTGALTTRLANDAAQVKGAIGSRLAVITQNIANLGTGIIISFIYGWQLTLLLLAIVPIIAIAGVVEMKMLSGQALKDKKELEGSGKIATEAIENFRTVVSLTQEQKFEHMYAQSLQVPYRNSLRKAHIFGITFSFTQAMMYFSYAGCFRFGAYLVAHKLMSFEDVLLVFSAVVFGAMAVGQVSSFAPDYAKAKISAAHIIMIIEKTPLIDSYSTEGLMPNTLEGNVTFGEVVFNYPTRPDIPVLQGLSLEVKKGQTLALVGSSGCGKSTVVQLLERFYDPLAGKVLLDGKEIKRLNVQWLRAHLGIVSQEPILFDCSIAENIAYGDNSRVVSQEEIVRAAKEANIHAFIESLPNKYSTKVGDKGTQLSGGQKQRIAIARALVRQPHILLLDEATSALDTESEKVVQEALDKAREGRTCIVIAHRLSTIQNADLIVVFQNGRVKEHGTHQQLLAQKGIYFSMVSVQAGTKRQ

For `COC1=C2C[C@@H](C)C[C@H](OC)[C@H](O)[C@@H](C)/C=C(\C)[C@H](OC(N)=O)[C@@H](OC)/C=C\C=C(/C)C(=O)NC(=CC1=O)C2=O` [geldanamycin], the solubility result in data set [1] was “poorly soluble”.
In the case of `C[C@@H]1C[C@H]2O[C@@H]2/C=C\C=C\C(=O)Cc2c(Cl)c(O)cc(O)c2C(=O)O1` [radicicol], the solubility result in data set [1] is on record as “poorly soluble”.
For `C=CCNC1=C2C[C@@H](C)C[C@H](OC)[C@H](O)[C@@H](C)/C=C(\C)[C@H](OC(N)=O)[C@@H](OC)/C=C\C=C(/C)C(=O)NC(=CC1=O)C2=O` [Compound 17AAG, 17-(allyllamino)-17-demethoxygeldanamycin], in data set [1], the solubility entry was “poorly soluble”. In addition, the “effects on p35 and mTau” value in data set [2] is given as “Analogous effects”. In addition, the P-gp substrate result is on record as “is a P-gp substrate” in data set [3] and “is a P-glycoprotein substrate” in data set [3] (listed as 17-AAG).
